{
  "source": "ChEMBL document CHEMBL5291721",
  "about": "“A preclinical secondary pharmacology resource illuminates target-adverse drug reaction associations of marketed drugs” (Nat Commun, 2023)",
  "key": {"Thromboxane A2 receptor": {"molecular_target": "T1, Thromboxane A2 receptor (Homo sapiens, UniProt P21731)", "T1 sequence (P21731 whole entry)": "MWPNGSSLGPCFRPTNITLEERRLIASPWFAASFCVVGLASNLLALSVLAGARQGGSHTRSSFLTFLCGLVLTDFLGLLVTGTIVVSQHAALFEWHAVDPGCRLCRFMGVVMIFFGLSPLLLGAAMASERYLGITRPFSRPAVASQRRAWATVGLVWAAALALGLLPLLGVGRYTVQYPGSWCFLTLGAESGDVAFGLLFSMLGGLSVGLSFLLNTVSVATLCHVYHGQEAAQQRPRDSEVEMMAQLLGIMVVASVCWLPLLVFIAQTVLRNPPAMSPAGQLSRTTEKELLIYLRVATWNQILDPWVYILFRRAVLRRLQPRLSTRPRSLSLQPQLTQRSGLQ", "format": "functional"}, "[1]": {"molecular_target": "Sodium channel protein type 5 subunit alpha (Homo sapiens, UniProt Q14524)", "sequence (Q14524 whole entry)": "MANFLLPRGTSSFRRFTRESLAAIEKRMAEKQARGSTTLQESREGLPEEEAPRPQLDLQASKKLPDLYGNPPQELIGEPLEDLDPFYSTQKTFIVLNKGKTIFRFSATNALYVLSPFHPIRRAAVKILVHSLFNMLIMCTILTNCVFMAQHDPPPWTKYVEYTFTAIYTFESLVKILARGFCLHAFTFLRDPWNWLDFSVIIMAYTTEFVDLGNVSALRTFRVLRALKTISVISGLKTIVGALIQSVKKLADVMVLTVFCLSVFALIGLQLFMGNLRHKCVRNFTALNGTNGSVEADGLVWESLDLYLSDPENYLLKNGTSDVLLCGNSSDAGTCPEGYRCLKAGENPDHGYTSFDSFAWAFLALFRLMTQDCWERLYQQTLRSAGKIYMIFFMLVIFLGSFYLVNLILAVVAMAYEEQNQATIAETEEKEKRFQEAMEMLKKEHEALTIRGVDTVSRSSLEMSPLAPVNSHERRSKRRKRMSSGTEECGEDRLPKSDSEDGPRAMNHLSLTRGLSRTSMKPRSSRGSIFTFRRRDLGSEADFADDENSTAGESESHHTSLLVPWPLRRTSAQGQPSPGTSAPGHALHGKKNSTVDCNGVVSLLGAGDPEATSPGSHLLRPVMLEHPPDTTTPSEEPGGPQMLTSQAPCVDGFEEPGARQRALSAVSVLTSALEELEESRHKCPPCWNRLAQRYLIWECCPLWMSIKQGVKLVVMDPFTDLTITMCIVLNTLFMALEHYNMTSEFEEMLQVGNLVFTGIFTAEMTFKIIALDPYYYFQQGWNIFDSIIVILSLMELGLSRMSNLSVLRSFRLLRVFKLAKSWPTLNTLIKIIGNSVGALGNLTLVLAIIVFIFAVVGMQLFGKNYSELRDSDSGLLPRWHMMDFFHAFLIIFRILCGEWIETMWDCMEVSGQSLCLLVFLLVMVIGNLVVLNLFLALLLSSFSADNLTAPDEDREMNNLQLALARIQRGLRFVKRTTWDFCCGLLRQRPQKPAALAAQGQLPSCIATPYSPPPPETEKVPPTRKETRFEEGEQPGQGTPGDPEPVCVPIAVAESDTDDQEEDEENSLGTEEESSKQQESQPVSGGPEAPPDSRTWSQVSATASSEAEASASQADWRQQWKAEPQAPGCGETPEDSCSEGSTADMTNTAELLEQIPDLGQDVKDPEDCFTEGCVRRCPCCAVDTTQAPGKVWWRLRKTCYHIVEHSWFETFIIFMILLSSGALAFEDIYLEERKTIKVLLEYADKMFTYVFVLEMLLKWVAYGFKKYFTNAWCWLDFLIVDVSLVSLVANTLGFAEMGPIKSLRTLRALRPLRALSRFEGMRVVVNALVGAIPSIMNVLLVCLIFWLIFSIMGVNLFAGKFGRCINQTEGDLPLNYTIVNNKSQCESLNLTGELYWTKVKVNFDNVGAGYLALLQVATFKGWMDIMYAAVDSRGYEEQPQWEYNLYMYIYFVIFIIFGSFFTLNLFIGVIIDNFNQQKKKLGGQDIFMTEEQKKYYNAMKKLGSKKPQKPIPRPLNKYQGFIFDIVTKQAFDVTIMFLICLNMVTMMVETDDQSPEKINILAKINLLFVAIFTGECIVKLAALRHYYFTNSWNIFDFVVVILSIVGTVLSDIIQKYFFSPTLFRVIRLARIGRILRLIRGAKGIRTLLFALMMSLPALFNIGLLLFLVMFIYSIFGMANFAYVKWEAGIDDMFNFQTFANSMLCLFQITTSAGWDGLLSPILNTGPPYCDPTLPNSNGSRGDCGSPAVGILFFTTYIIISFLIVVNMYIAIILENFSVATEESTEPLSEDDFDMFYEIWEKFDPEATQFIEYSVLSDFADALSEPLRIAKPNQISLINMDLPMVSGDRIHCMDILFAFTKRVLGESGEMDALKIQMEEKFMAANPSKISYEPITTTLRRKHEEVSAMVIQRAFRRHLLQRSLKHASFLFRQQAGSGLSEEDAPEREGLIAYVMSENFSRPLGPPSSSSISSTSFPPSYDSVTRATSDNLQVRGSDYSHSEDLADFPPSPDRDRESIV", "format": "functional, cell-based"}, "[2]": {"molecular_target": "T2, Peroxisome proliferator-activated receptor gamma (Homo sapiens, UniProt P37231)", "T2 sequence (P37231 whole entry)": "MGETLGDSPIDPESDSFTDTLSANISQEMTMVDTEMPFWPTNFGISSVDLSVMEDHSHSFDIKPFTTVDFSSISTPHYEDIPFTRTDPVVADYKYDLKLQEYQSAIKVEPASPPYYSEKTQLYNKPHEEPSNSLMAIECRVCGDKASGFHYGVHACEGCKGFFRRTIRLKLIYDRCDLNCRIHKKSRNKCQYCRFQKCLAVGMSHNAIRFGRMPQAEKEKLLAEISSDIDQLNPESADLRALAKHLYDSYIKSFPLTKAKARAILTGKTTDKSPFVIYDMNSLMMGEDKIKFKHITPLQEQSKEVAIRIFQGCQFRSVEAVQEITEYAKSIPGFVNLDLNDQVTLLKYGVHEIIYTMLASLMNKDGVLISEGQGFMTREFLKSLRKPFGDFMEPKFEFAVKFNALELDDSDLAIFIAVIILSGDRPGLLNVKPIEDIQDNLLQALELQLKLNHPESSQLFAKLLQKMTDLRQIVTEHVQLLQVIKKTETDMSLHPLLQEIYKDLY", "format": "functional"}, "[3]": {"molecular_target": "T2, Peroxisome proliferator-activated receptor gamma", "format": "functional", "remark": "listed apart in the source"}, "[4]": {"molecular_target": "Synaptic vesicular amine transporter (Rattus norvegicus, UniProt Q01827)", "sequence (Q01827 whole entry)": "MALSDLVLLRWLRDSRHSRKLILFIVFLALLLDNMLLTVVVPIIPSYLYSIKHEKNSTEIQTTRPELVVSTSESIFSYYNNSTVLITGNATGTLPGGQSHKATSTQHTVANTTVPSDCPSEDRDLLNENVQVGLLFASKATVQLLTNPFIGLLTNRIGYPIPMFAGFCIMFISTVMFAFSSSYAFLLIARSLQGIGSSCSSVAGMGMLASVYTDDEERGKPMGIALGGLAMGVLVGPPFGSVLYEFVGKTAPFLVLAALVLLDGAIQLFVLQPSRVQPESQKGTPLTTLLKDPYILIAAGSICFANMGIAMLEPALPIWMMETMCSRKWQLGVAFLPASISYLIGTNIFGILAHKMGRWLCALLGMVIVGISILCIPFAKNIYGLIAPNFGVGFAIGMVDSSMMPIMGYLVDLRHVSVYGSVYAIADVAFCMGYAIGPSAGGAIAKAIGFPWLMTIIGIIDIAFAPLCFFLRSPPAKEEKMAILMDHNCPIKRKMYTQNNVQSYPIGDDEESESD", "format": "functional"}},
  "data": [
    {"compound": "O=C(Nc1ccccc1)OCC(CN1CCCCC1)OC(=O)Nc1ccccc1", "note": "(stereo not given) [DIPERODON]; also: assay procedure not described here", "values": [
      {"measurement": "AC50", "setting": "Thromboxane A2 receptor", "value": "> 30", "unit": "µM"}
    ]},
    {"compound": "O=P(O)(O)C(O)(Cc1cccnc1)P(=O)(O)O", "note": "[RISEDRONIC ACID]", "values": [
      {"measurement": "AC50", "setting": "[1]", "value": "> 30", "unit": "µM"}
    ]},
    {"compound": "CC(=O)O[C@]1(C(C)=O)CC[C@H]2[C@@H]3C[C@H](C)C4=CC(=O)CC[C@]4(C)[C@H]3CC[C@@]21C", "note": "[MEDROXYPROGESTERONE ACETATE]", "values": [
      {"measurement": "AC50", "setting": "[2]", "value": "> 30", "unit": "µM"},
      {"measurement": "AC50", "setting": "[3]", "value": "> 30", "unit": "µM"}
    ]},
    {"compound": "COc1cc2c(cc1OC)[C@H]1C[C@@H](OC(=O)[C@@H](N)C(C)C)[C@H](CC(C)C)CN1CC2", "note": "[VALBENAZINE]", "values": [
      {"measurement": "AC50", "setting": "[4]", "value": 0.46, "unit": "µM"}
    ]}
  ]
}
